# Reference: the supplement of paper PMC3937590
# Legend:
# Assay in all cases: -log10 GI50 (growth inhibition 50%) (-log10(M)); higher = more potent growth inhibition
# 184A1 = system: 184A1
# How it was run: (§1)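 Breast cancer cell lines were treated with each compound for 72 hours at nine doses in 1:5 serial dilution, in triplicate, and luminescence was read against a time-zero plate. A Gompertz curve was fitted to the dose-response data by nonlinear least squares to obtain GI50, the molar concentration giving the set level of growth inhibition, which is reported as its negative logarithm. The logarithm is base 10, and values equal to the top dose carry a < qualifier.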
# 184B5 = system: 184B5
# How it was run: as §1
# 600MPE = system: 600MPE
# How it was run: as §1
# BT474 = system: BT474
# How it was run: as §1
# BT483 = system: BT483
# How it was run: as §1
# BT549 = system: BT549
# How it was run: as §1
# CAMA1 = system: CAMA1
# How it was run: as §1
# HCC1143 = system: HCC1143
# How it was run: as §1
# HCC1395 = system: HCC1395
# How it was run: as §1
# HCC1419 = system: HCC1419
# How it was run: as §1
# HCC1428 = system: HCC1428
# How it was run: as §1
# HCC1569 = system: HCC1569
# How it was run: as §1
# HCC1806 = system: HCC1806
# How it was run: as §1
# HCC1937 = system: HCC1937
# How it was run: as §1
# HCC2185 = system: HCC2185
# How it was run: as §1
# HCC3153 = system: HCC3153
# How it was run: as §1
# HCC38 = system: HCC38
# How it was run: as §1
# HCC70 = system: HCC70
# How it was run: as §1
# LY2 = system: LY2
# How it was run: as §1
# MCF10A = system: MCF10A
# How it was run: as §1
# MCF10F = system: MCF10F
# How it was run: as §1
# MCF12A = system: MCF12A
# How it was run: as §1
# MCF7 = system: MCF7
# How it was run: as §1
# MDAMB134VI = system: MDAMB134VI
# How it was run: as §1
# MDAMB157 = system: MDAMB157
# How it was run: as §1
# MDAMB175VII = system: MDAMB175VII
# How it was run: as §1
# MDAMB231 = system: MDAMB231
# How it was run: as §1
# MDAMB361 = system: MDAMB361
# How it was run: as §1
# MDAMB415 = system: MDAMB415
# How it was run: as §1
# MDAMB453 = system: MDAMB453
# How it was run: as §1
# MX1 = system: MX1
# How it was run: as §1
# SKBR3 = system: SKBR3
# How it was run: as §1
# SUM1315MO2 = system: SUM1315MO2
# How it was run: as §1
# SUM149PT = system: SUM149PT
# How it was run: as §1
# SUM159PT = system: SUM159PT
# How it was run: as §1
# SUM185PE = system: SUM185PE
# How it was run: as §1
# SUM225CWN = system: SUM225CWN
# How it was run: as §1
# SUM229PE = system: SUM229PE
# How it was run: as §1
# SUM52PE = system: SUM52PE
# How it was run: as §1
# T47D_KBluc = system: T47D_KBluc
# How it was run: as §1
# T47D = system: T47D
# How it was run: as §1
# UACC812 = system: UACC812
# How it was run: as §1
# ZR751 = system: ZR751
# How it was run: as §1
# AU565 = system: AU565
# How it was run: as §1
# BT20 = system: BT20
# How it was run: as §1
# HCC1187 = system: HCC1187
# How it was run: as §1
# HCC1954 = system: HCC1954
# How it was run: as §1
# HCC202 = system: HCC202
# How it was run: as §1
# HS578T = system: HS578T
# How it was run: as §1
# ZR75B = system: ZR75B
# How it was run: as §1
smiles,measurement,setting,value
CO[C@H]1C[C@@H]2CC[C@@H](C)[C@@](O)(O2)C(=O)C(=O)N2CCCC[C@H]2C(=O)O[C@H]([C@H](C)C[C@@H]2CC[C@@H](OCCO)[C@H](OC)C2)CC(=O)[C@H](C)/C=C(\C)[C@@H](O)[C@@H](OC)C(=O)[C@H](C)C[C@H](C)/C=C/C=C/C=C/1C [Everolimus],-log10 GI50,184A1,6.16
same,-log10 GI50,184B5,5.55
same,-log10 GI50,600MPE,4.7
same,-log10 GI50,BT474,7.52
same,-log10 GI50,BT483,5.55
same,-log10 GI50,BT549,6.88
same,-log10 GI50,CAMA1,8.15
same,-log10 GI50,HCC1143,5.83
same,-log10 GI50,HCC1395,4.98
same,-log10 GI50,HCC1419,8.4
same,-log10 GI50,HCC1428,5.06
same,-log10 GI50,HCC1569,5.15
same,-log10 GI50,HCC1806,4.61
same,-log10 GI50,HCC1937,6.1
same,-log10 GI50,HCC2185,7.93
same,-log10 GI50,HCC3153,4.85
same,-log10 GI50,HCC38,6.25
same,-log10 GI50,HCC70,6.96
same,-log10 GI50,LY2,7.52
same,-log10 GI50,MCF10A,6.08
same,-log10 GI50,MCF10F,6
same,-log10 GI50,MCF12A,4.87
same,-log10 GI50,MCF7,6.46
same,-log10 GI50,MDAMB134VI,7.27
same,-log10 GI50,MDAMB157,4.63
same,-log10 GI50,MDAMB175VII,5.1
same,-log10 GI50,MDAMB231,4.27
same,-log10 GI50,MDAMB361,8.35
same,-log10 GI50,MDAMB415,8.12
same,-log10 GI50,MDAMB453,7.59
same,-log10 GI50,MX1,5.33
same,-log10 GI50,SKBR3,6.84
same,-log10 GI50,SUM1315MO2,5.23
same,-log10 GI50,SUM149PT,5.42
same,-log10 GI50,SUM159PT,6.36
same,-log10 GI50,SUM185PE,5.8
same,-log10 GI50,SUM225CWN,7.62
same,-log10 GI50,SUM229PE,4.75
same,-log10 GI50,SUM52PE,7.73
same,-log10 GI50,T47D_KBluc,5
same,-log10 GI50,T47D,5.92
same,-log10 GI50,UACC812,7.49
same,-log10 GI50,ZR751,7.55
O=C(c1ccc(Nc2nccc(-c3cc4ccccc4s3)n2)cc1)N1CCC(N2CCCC2)CC1 [IKK 16],-log10 GI50,184A1,6.05
same,-log10 GI50,184B5,5.83
same,-log10 GI50,600MPE,5.11
same,-log10 GI50,AU565,5.58
same,-log10 GI50,BT20,5.42
same,-log10 GI50,BT474,5.27
same,-log10 GI50,BT549,5.4
same,-log10 GI50,CAMA1,5.57
same,-log10 GI50,HCC1143,5.3
same,-log10 GI50,HCC1187,5.25
same,-log10 GI50,HCC1395,5.86
same,-log10 GI50,HCC1419,5.36
same,-log10 GI50,HCC1428,5.4
same,-log10 GI50,HCC1569,5.48
same,-log10 GI50,HCC1806,5.99
same,-log10 GI50,HCC1937,5.59
same,-log10 GI50,HCC1954,5.77
same,-log10 GI50,HCC202,5.1
same,-log10 GI50,HCC2185,5.13
same,-log10 GI50,HCC3153,5.48
same,-log10 GI50,HCC38,5.45
same,-log10 GI50,HCC70,5.54
same,-log10 GI50,HS578T,5.53
same,-log10 GI50,LY2,5.26
same,-log10 GI50,MCF10A,5.56
same,-log10 GI50,MCF10F,5.37
same,-log10 GI50,MCF12A,5.39
same,-log10 GI50,MDAMB134VI,5.26
same,-log10 GI50,MDAMB157,5.74
same,-log10 GI50,MDAMB231,5.44
same,-log10 GI50,MDAMB361,5.24
same,-log10 GI50,MDAMB453,5.55
same,-log10 GI50,SKBR3,5.53
same,-log10 GI50,SUM1315MO2,5.81
same,-log10 GI50,SUM149PT,5.82
same,-log10 GI50,SUM159PT,5.8
same,-log10 GI50,SUM225CWN,5.51
same,-log10 GI50,SUM229PE,6
same,-log10 GI50,SUM52PE,5.94
same,-log10 GI50,T47D_KBluc,5.38
same,-log10 GI50,T47D,5.55
same,-log10 GI50,UACC812,5.09
same,-log10 GI50,ZR751,5.29
CCCCCN(C)CCC(O)(P(=O)(O)O)P(=O)(O)O [Ibandronate sodium],-log10 GI50,184A1,3.81
same,-log10 GI50,184B5,3.62
same,-log10 GI50,600MPE,3.67
same,-log10 GI50,AU565,3.74
same,-log10 GI50,BT20,4.69
same,-log10 GI50,BT474,3.98
same,-log10 GI50,BT483,4.24
same,-log10 GI50,BT549,4.53
same,-log10 GI50,CAMA1,3.82
same,-log10 GI50,HCC1143,4.38
same,-log10 GI50,HCC1187,3.77
same,-log10 GI50,HCC1395,4.89
same,-log10 GI50,HCC1419,5.12
same,-log10 GI50,HCC1428,3.89
same,-log10 GI50,HCC1569,4.21
same,-log10 GI50,HCC1806,4.44
same,-log10 GI50,HCC1937,4.53
same,-log10 GI50,HCC1954,4.26
same,-log10 GI50,HCC2185,4.92
same,-log10 GI50,HCC3153,4.05
same,-log10 GI50,HCC38,4.3
same,-log10 GI50,HCC70,4.2
same,-log10 GI50,HS578T,5.03
same,-log10 GI50,LY2,3.9
same,-log10 GI50,MCF10A,3.39
same,-log10 GI50,MCF10F,3.81
same,-log10 GI50,MCF12A,3.73
same,-log10 GI50,MCF7,4.31
same,-log10 GI50,MDAMB134VI,4.17
same,-log10 GI50,MDAMB157,4.36
same,-log10 GI50,MDAMB175VII,4.47
same,-log10 GI50,MDAMB231,4.21
same,-log10 GI50,MDAMB361,4.83
same,-log10 GI50,MDAMB415,4.29
same,-log10 GI50,MDAMB453,3.97
same,-log10 GI50,MX1,3.94
same,-log10 GI50,SKBR3,4.05
same,-log10 GI50,SUM1315MO2,4.29
same,-log10 GI50,SUM149PT,3.76
same,-log10 GI50,SUM159PT,4.37
same,-log10 GI50,SUM225CWN,3.3
same,-log10 GI50,SUM229PE,4.27
same,-log10 GI50,SUM52PE,4.47
same,-log10 GI50,T47D_KBluc,3.92
same,-log10 GI50,T47D,4.46
same,-log10 GI50,UACC812,3.83
same,-log10 GI50,ZR751,4.16
same,-log10 GI50,ZR75B,3.84
Cc1[nH]c2ccccc2c1CCNCc1ccc(/C=C/C(=O)NO)cc1 [LBH589],-log10 GI50,184A1,6.56
same,-log10 GI50,184B5,6.99
same,-log10 GI50,600MPE,6.72
same,-log10 GI50,AU565,6.98
same,-log10 GI50,BT20,6.41
same,-log10 GI50,BT474,7.46
same,-log10 GI50,BT483,7.14
same,-log10 GI50,BT549,6.91
same,-log10 GI50,CAMA1,7.3
same,-log10 GI50,HCC1143,7.09
same,-log10 GI50,HCC1187,6.76
same,-log10 GI50,HCC1395,6.56
same,-log10 GI50,HCC1419,7.23
same,-log10 GI50,HCC1428,6.98
same,-log10 GI50,HCC1569,6.81
same,-log10 GI50,HCC1806,6.82
same,-log10 GI50,HCC1937,6.72
same,-log10 GI50,HCC1954,6.43
same,-log10 GI50,HCC2185,7.16
same,-log10 GI50,HCC3153,6.53
same,-log10 GI50,HCC38,7.45
same,-log10 GI50,HCC70,7.11
same,-log10 GI50,HS578T,6.55
same,-log10 GI50,MCF10A,6.84
same,-log10 GI50,MCF10F,6.04
same,-log10 GI50,MCF12A,6.35
same,-log10 GI50,MCF7,7.1
same,-log10 GI50,MDAMB134VI,7.05
same,-log10 GI50,MDAMB157,7.29
same,-log10 GI50,MDAMB175VII,6.41
same,-log10 GI50,MDAMB231,6.68
same,-log10 GI50,MDAMB361,7.46
same,-log10 GI50,MDAMB415,7.66
same,-log10 GI50,MDAMB453,7.31
same,-log10 GI50,MX1,7.47
same,-log10 GI50,SKBR3,7.25
same,-log10 GI50,SUM1315MO2,6.62
same,-log10 GI50,SUM149PT,6.6
same,-log10 GI50,SUM159PT,6.88
same,-log10 GI50,SUM185PE,7.11
same,-log10 GI50,SUM225CWN,6.96
same,-log10 GI50,SUM229PE,6.57
same,-log10 GI50,SUM52PE,6.83
same,-log10 GI50,T47D_KBluc,6.88
same,-log10 GI50,T47D,6.82
same,-log10 GI50,UACC812,6.89
same,-log10 GI50,ZR751,6.8
same,-log10 GI50,ZR75B,7.08
